Assay results taken from patent US11389445B2, “Pentafluorosulfanyl-substituted amide derivatives, preparation methods thereof and medical uses thereof” (Beijing Innocare Pharma Tech Co., Ltd., priority 2018, dated 2022).

Legend:
[1] = target: indoleamine 2,3-dioxygenase (IDO) in Hela cells induced by IFN-γ (Homo sapiens (Human), UniProt P14902); assay: IDO Cellular Activity Inhibition Assay (Ehrlich method); type: cell-based; details: 24 hours, OD490
Experimental: IDO Cellular Activity Inhibition Assay
The effect of the compounds of the present invention on the activity of indoleamine 2,3-dioxygenase (IDO) in Hela cells induced by IFN-γ was evaluated by the Ehrlich method.
The experimental principle is summarized as follows: IDO expression is low in Hela cells under no induction, but a certain concentration of IFN-γ can induces Hela cells to express IDO which catalyzes the conversion of tryptophan to N-formyl kynurenine, which in turn is hydrolyzed by trichloroacetic acid to give kynurenine. Kynurenine then reacts with the Ehrlich reagent to give a color enabling detection of the IDO activity. The absorbance at 490 nm (OD490) is directly proportional to the IDO activity.
The test compound was dissolved in DMSO (Sigma, Cat. No. D5879) and diluted to 5 mM, then serially diluted 3-fold with DMSO to a minimum concentration of 2.29 μM, and each concentration point was further diluted 50-fold with FBS-free DMEM medium (ThermoFisher, Cat. No. 11995073). If a compound's IC50 value was very low, the initial concentration of the compound was lowered.
Hela cells (ATCC, Cat. No. CCL-2) were cultured in DMEM complete medium containing 10% FBS (GBICO, Cat. No. 10099-141) and 100 U/mL streptomycin mixture (ThermoFisher, Cat. No. 15140122). When covering the culture vessel 80-90%, the cells were digested with 0.25% trypsin (containing EDTA) (ThermoFisher, Cat. No. 25200056) and planted in 96-well plates (Corning, Cat. No. 3599) by 20000 cells per well (80 μL of DMEM medium). The plates were then incubated in a 37° C., 5% CO2 incubator overnight (18-20 hours).
After overnight, 10 μL of DMEM-diluted compound and 10 μL of 500 ng/mL of IFN-γ were added to each well, and gently mixed and the 96-well plates were placed in a 37° C., 5% CO2 incubator for further culturing. After 24 hours, they were removed and centrifuged at room temperature under 2000×g for 5 min, and then the supernatants were transferred to reaction plates (Sigma, Cat. No. CLS3695). One-twentieth of trichloroacetic acid (Sigma, Cat. No. T9159) was added and incubated at 60° C. After 30 min, the reaction plates were centrifuged at room temperature under 2000×g for 5 min. The supernatants were transferred to clean reaction plates, an equal volume of the Ehrlich reagent was added, mixed, and incubated at room temperature. After 15 min, OD490 of each well was measured.
In this experiment, OD490 without IFN-γ but with DMEM medium replacement was referred as OD490100% inhibition. OD490 with IFN-γ and 0.2% DMSO was referred as OD4900% inhibition. The percentage of inhibition on the IDO1 activity in Hela cells by a compound was calculated using the following formula: Inhibition %=100−100*(OD490compound−OD490100% inhibition)/(OD4900% inhibition−OD490100% inhibition)
Where Y is the percentage of inhibition, Bottom is the bottom platform value of the S-curve, Top is the top platform value of the S-curve, X is the logarithm of the concentration of the test compound, and slope factor is the slope coefficient of the curve.

[2] = system: CT26 tumors; details: repeated doses; cited from earlier work
[3] = target: plasma IDO1 (Mus musculus (Mouse), UniProt P28776); details: single dose, nude mice; cited from earlier work
Chain of plasma IDO1 (P28776 whole entry): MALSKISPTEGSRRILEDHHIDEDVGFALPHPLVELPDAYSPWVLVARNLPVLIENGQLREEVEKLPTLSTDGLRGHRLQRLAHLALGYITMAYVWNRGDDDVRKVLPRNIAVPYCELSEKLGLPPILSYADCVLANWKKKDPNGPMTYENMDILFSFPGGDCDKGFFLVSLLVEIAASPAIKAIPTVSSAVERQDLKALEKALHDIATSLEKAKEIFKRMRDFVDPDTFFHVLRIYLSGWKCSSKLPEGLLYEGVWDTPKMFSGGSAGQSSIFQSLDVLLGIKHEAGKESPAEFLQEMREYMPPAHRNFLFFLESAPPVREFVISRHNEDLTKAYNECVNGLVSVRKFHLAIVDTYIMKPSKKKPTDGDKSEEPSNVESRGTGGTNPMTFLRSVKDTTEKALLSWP

Chain of indoleamine 2,3-dioxygenase (IDO) in Hela cells induced by IFN-γ (P14902 whole entry): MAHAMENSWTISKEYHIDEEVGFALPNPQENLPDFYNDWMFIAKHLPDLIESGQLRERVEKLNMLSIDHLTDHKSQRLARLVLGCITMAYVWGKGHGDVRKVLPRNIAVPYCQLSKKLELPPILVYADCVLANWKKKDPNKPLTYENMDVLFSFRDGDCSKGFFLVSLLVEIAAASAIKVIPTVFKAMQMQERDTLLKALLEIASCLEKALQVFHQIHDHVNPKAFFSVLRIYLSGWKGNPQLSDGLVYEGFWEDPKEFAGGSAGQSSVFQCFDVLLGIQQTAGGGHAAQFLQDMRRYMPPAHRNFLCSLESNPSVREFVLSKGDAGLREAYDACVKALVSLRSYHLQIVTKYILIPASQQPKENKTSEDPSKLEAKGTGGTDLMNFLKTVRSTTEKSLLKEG

Row | SMILES | IC50 [1] [nM] | expansion of CT26 tumors [2] | inhibition of the activity of plasma IDO1 [3]
1 | Cc1cc([C@H]2CC[C@@H]([C@@H](C)C(=O)Nc3ccc(S(F)(F)(F)(F)F)cc3)CC2)ccn1 [Compound 3, (R)-2-((1s,4S)-4-(2-methylpyridin-4-yl)cyclohexyl)-N-(4-(pentafluoro-λ^6-sulfanyl)phenyl)propanamide] | < 50 | – | –
2 | C[C@@H](C(=O)Nc1ccc(S(F)(F)(F)(F)F)cc1)C1CCC(c2ccnc3ccnn23)CC1 (stereo partly drawn) [Compound 4, (R)-N-(4-(pentafluoro-λ^6-sulfanyl)phenyl)-2-(4-(pyrazolo[1,5-a]pyrimidin-7-yl)cyclohexyl)propanamide] | 50 to 200 | – | –
3 | O=C(CC1(O)CCC(c2ccnc3ccc(F)cc23)CC1)Nc1ccc(S(F)(F)(F)(F)F)cc1 (stereo not drawn) [Compound 5, 2-(4-(6-fluoroquinolin-4-yl)-1-hydroxycyclohexyl)-N-(4-(pentafluoro-λ^6-sulfanyl)phenyl)acetamide] | < 50 | – | –
4 | NS(=O)(=O)NCCNc1nonc1C(=NO)Nc1ccc(F)c(Br)c1 [INCB-024360] | – | prevented the expansion of CT26 tumors | effectively inhibit the activity of plasma IDO1 in nude mice at the same level as that in IDO-deficient mice

Continued, in another order:

Row | IC50 [1] [nM] | SMILES | expansion of CT26 tumors [2] | inhibition of the activity of plasma IDO1 [3]
5 | < 50 | C[C@@H](C(=O)Nc1ccc(S(F)(F)(F)(F)F)cc1)[C@H]1CC[C@@H](c2ccnc3ccc(F)cc32)CC1 [Compound 1, (R)-2-((1s,4S)-4-(6-fluoroquinolin-4-yl)cyclohexyl)-N-(4-(pentafluoro-λ^6-sulfanyl)phenyl)propanamide] | – | –
6 | 200 to 1000 | C[C@@H](C(=O)Nc1ccc(S(F)(F)(F)(F)F)cc1)[C@H]1CC[C@H](c2ccnc3ccc(F)cc32)CC1 [Compound 2, (R)-2-((1r,4R)-4-(6-fluoroquinolin-4-yl)cyclohexyl)-N-(4-(pentafluoro-λ^6-sulfanyl)phenyl)propanamide] | – | –
7 | 200 to 1000 | C[C@@H](C(=O)Nc1cccc(S(F)(F)(F)(F)F)c1)[C@H]1CC[C@@H](c2ccnc3ccc(F)cc32)CC1 [Compound 8, (R)-2-((1s,4S)-4-(6-fluoroquinolin-4-yl)cyclohexyl)-N-(3-(pentafluoro-λ^6-sulfanyl)phenyl)propanamide] | – | –
8 | < 50 | CC(NC(=O)c1ccc(S(F)(F)(F)(F)F)cc1)[C@H]1CC[C@@H](c2ccnc3ccc(F)cc32)CC1 (stereo partly drawn) [Compound 9, N-(1-((1s,4s)-4-(6-fluoroquinolin-4-yl)cyclohexyl)ethyl)-4-(pentafluoro-λ^6-sulfanyl)benzamide] | – | –
